In US11753403B2, “EIF4E inhibitors and uses thereof” (PIC Therapeutics, Inc., priority 2020, dated 2023):

Molecular target: Human eIF4E (aa 28-217) / biotin labeled 4G2 peptide (Homo sapiens (Human), UniProt P06730)
Assay: Human eIF4E/4G2 binding assay (TR-FRET)
Conditions: Human eIF4E/4G2 TR-FRET binding assay; head says IC50, legend says EC50
Protocol: Example 5. Compound Testing in Human eIF4E/4G2 Binding Assay
Human eIF4E (aa 28-217) with a C-terminal His-tag was expressed in E. coli in inclusion bodies. The protein was solubilized with 8 M urea and purified under denaturing conditions using nickel-charged HisTrap HP columns (GE Healthcare). The purified protein was then refolded by diluting in 20 mM Hepes pH 7.0, 0.5 M NaCl, 1 mM DTT, 1 mM EDTA, 0.5 M arginine plus 6 M urea, and then dialyzing overnight into the same buffer without the urea. The protein was further dialyzed into 20 mM Hepes, pH 6.5, 50 mM NaCl, 1 mM EDTA, 1 mM DTT, and concentrated using Hitrap SP sepharose FF columns (GE Healthcare). The concentrated protein was dialyzed into 20 mM Hepes, pH 7.0, 0.5M NaCl, 5 mM DTT and 10% glycerol, and stored at −80° C. until use.
Test compounds (3.43 mM stock in DMSO) were diluted 2-fold in series in DMSO (10 concentration points). Compound solutions (1.2 μl/well) were added into black 384-well polypropylene microplates (Matrix, Thermal Scientific). Twenty-two microliters per well of Assay Buffer (50 mM NaPi, pH 6.5, 50 mM KCl, 1 mM DTT and 0.5 mg/ml gamma globulin) and eight microliters per well of 82.5 nM purified eIF4E in Assay Buffer were added. The samples were incubated at room temperature (20-23° C.) for 4 hours. Biotin labeled 4G2 peptide (Ac-Lys-Gln-Tyr-Asp-Arg-Glu-Phe-Leu-Leu-Asp-Phe-Gln-Phe-Met-Pro-Lys(Aha-Bio)-NH2, 1.75 μM stock in DMSO) was diluted to 0.14 μM in Assay Buffer (without DTT) and 5 μl/well was added. The samples were incubated at room temperature for 20 min. Five microliters per well of 6.4 nM Eu-streptavidin (Eu-SA, Perkin Elmer) and 80 nM Allophycocyanin (APC)-anti His antibody (Columbia Biosciences) in Assay Buffer (without DTT) were then added and the samples were incubated at room temperature for 20 min.
Assay signals were monitored by reading excitation at 340 nm and emission fluorescence at 615 nm and 665 nm on an Envision reader (Perkin Elmer). Normalized TR-FRET (time-resolved fluorescence resonance energy transfer) assay signal (Rn) was calculated by the formula: Rn=[(A−Ba−C×D)/(D−Bd)]×(Dc−Bd) Where A is the fluorescence intensity of the sample at 665 nm, • D is the fluorescence intensity of the sample at 615 nm, • Ba and Bd are plate backgrounds at 665 nm and 615 nm, respectively, • Dc is the fluorescence intensity of 0.78 nM Eu-SA in the assay buffer at 615 nm The cross-talk factor (C) is determined by the following formula: C=(Ac−Ba)/(Dc−Bd) Where Ac is the fluorescence intensity of 0.78 nM Eu-SA in the assay buffer at 665 nm.
IC50 values were calculated using xLFit program (IDBS). Table 2 below lists EC50 of some compounds, wherein A represents EC50≤1 uM; B represents 1 uM<EC50≤10 uM; and C represents EC50>10 uM.

Sequence of Human eIF4E (aa 28-217) / biotin labeled 4G2 peptide (P06730 28-217): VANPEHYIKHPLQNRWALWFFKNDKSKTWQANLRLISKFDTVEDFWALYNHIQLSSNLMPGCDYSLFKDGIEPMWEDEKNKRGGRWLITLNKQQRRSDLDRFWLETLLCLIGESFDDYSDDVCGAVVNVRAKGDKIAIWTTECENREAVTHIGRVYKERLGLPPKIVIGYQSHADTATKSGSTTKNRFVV

| SMILES | IC50 [µM] |
| --- | --- |
| CC(C)Cc1sc(N(CCC(=O)O)Cc2ccccc2)nc1-c1ccc(-c2ccc(F)cc2)cc1 [I-101, 3-(benzyl(4-(4′-fluorobiphenyl-4-yl)-5-isobutylthiazol-2-yl)amino)propanoic acid] | ≤ 1 |
| CC(C)Cc1sc(N(CCC(=O)O)CC2CC2)nc1-c1ccc(Cl)c(Cl)c1 [I-105] | 1 to 10 |
| CC(C)Cc1sc(N(CCC(=O)O)CCC2CC2)nc1-c1ccc(Cl)c(Cl)c1 [I-106] | 1 to 10 |
| CC(C)Cc1sc(NCC(N)C(=O)O)nc1-c1ccc(Cl)c(Cl)c1 (stereo not drawn) [I-115, 2-amino-3-(4-(3,4-dichlorophenyl)-5-isobutylthiazol-2-ylamino)propanoic acid] | > 10 |
| CC(C)Cc1sc(NCC(C(=O)O)N(C)C)nc1-c1ccc(Cl)c(Cl)c1 (stereo not drawn) [I-116, 3-(4-(3,4-dichlorophenyl)-5-isobutylthiazol-2-ylamino)-2-(dimethylamino)propanoic acid] | > 10 |
| CC(C)Cc1sc(NCC(CCCCN)C(=O)O)nc1-c1ccc(Cl)c(Cl)c1 (stereo not drawn) [I-125, 6-amino-2-((4-(3,4-dichlorophenyl)-5-isobutylthiazol-2-ylamino)methyl)hexanoic acid] | > 10 |
| CC(C)Cc1sc(NCC(NC(=O)c2ccccc2)C(=O)O)nc1-c1ccc(Cl)c(Cl)c1 (stereo not drawn) [I-136, 2-benzamido-3-(4-(3,4-dichlorophenyl)-5-isobutylthiazol-2-ylamino)propanoic acid] | 1 to 10 |
| CC(C)Cc1sc(NCC(NC(=O)OC(C)(C)C)C(=O)O)nc1-c1ccc(Cl)c(Cl)c1 (stereo not drawn) [I-137, 2-(tert-butoxycarbonylamino)-3-(4-(3,4-dichlorophenyl)-5-isobutylthiazol-2-ylamino) propanoic acid] | 1 to 10 |
| CC(C)Cc1sc(NCC(NC(=O)OCc2ccccc2)C(=O)O)nc1-c1ccc(Cl)c(Cl)c1 (stereo not drawn) [I-138, 2-(benzyloxycarbonylamino)-3-(4-(3,4-dichlorophenyl)-5-isobutylthiazol-2-ylamino) propanoic acid] | ≤ 1 |
| CCOC(=O)NC1CN(c2nc(-c3ccc(Cl)c(Cl)c3)c(CC(C)C)s2)C1=O (stereo not drawn) [I-139, ethyl 1-(4-(3,4-dichlorophenyl)-5-isobutylthiazol-2-yl)-2-oxoazetidin-3-ylcarbamate] | 1 to 10 |
| CC(=O)NC(CNc1nc(-c2ccc(Cl)c(Cl)c2)c(CC(C)C)s1)C(=O)O (stereo not drawn) [I-140] | > 10 |
| CC(C)Cc1sc(Nc2ccccc2C(=O)O)nc1-c1ccc(Cl)c(Cl)c1 [I-141, 2-(4-(3,4-dichlorophenyl)-5-isobutylthiazol-2-ylamino)benzoic acid] | 1 to 10 |
| CC(C)Cc1sc(NCC(CCCCN(C)C)C(=O)O)nc1-c1ccc(Cl)c(Cl)c1 (stereo not drawn) [I-145, 2-((4-(3,4-dichlorophenyl)-5-isobutylthiazol-2-ylamino)methyl)-6-(dimethylamino) hexanoic acid] | > 10 |
| CC(C)Cc1sc(N(CCCCN)CCC(=O)O)nc1-c1ccc(Cl)c(Cl)c1 [I-146, 3-((4-aminobutyl)(4-(3,4-dichlorophenyl)-5-isobutylthiazol-2-yl)amino)propanoic acid] | > 10 |
| CC(C)Cc1sc(N(CCCCN(C)C)CCC(=O)O)nc1-c1ccc(Cl)c(Cl)c1 [I-147, 3-((4-(3,4-dichlorophenyl)-5-isobutylthiazol-2-yl)(4-(dimethylamino)butyl)amino) propanoic acid] | 1 to 10 |
| CC(C)Cc1sc(N(CCCCCCN)CCC(=O)O)nc1-c1ccc(Cl)c(Cl)c1 [I-148] | > 10 |
| CC(C)Cc1sc(N(CCCCCC(N)=O)CCC(=O)O)nc1-c1ccc(Cl)c(Cl)c1 [I-149] | > 10 |
| Cc1cc(CC(CNc2nc(-c3ccc(Cl)c(Cl)c3)c(CC(C)C)s2)C(=O)O)cc(C)n1 (stereo not drawn) [I-150] | 1 to 10 |
| Cc1cc(CC(CNc2nc(-c3ccc(Cl)c(Cl)c3)c(CC(C)C)s2)C(=O)O)ccn1 (stereo not drawn) [I-151] | 1 to 10 |
| CC(C)Cc1sc(NCC(Cc2ccncc2)C(=O)O)nc1-c1ccc(Cl)c(Cl)c1 (stereo not drawn) [I-152] | 1 to 10 |
| CC(C)Cc1sc(NCC(Cc2ccc(N)nc2)C(=O)O)nc1-c1ccc(Cl)c(Cl)c1 (stereo not drawn) [I-153] | > 10 |

The remaining lines, values ahead:

| IC50 [µM] | SMILES |
| --- | --- |
| ≤ 1 | CC(C)Cc1sc(N(CCC(=O)O)Cc2ccccc2)nc1-c1ccc(Oc2ccccc2)c(Cl)c1 [I-103] |
| ≤ 1 | CC(C)Cc1sc(N(CCC(=O)O)Cc2cccc(Cl)c2)nc1-c1ccc(Cl)c(Cl)c1 [I-107] |
| ≤ 1 | CC(C)Cc1sc(N(CCC(=O)O)Cc2ccccc2Cl)nc1-c1ccc(Cl)c(Cl)c1 [I-108] |
| 1 to 10 | CC(C)Cc1sc(N(CCC(=O)O)Cc2ccc(Cl)cc2)nc1-c1ccc(Cl)c(Cl)c1 [I-109] |
| 1 to 10 | CC(C)Cc1sc(N(CCC(=O)O)Cc2ccc[nH]2)nc1-c1ccc(Cl)c(Cl)c1 [I-110] |
| ≤ 1 | CC(C)Cc1sc(N(CCC(=O)O)Cc2ccccc2)nc1-c1cc(Cl)c(Cl)c(Cl)c1 [I-111] |
| 1 to 10 | CC(C)Cc1sc(NCC(C(=O)O)N(C)Cc2ccccc2)nc1-c1ccc(Cl)c(Cl)c1 (stereo not drawn) [I-114, 2-(benzyl(methyl)amino)-3-(4-(3,4-dichlorophenyl)-5-isobutylthiazol-2-ylamino)propanoic acid] |
| 1 to 10 | CC(C)Cc1sc(N(CCC(=O)O)Cc2ccccc2)nc1-c1ccc(O)cc1 [I-117] |
| 1 to 10 | O=Cc1sc(N(CCC(=O)O)Cc2ccccc2)nc1-c1ccc(Cl)c(Cl)c1 [I-119, 3-(benzyl(4-(3,4-dichlorophenyl)-5-formylthiazol-2-yl)amino)propanoic acid] |
| 1 to 10 | COCc1sc(N(CCC(=O)O)Cc2ccccc2)nc1-c1ccc(Cl)c(Cl)c1 [I-120, 3-(benzyl(4-(3,4-dichlorophenyl)-5-(methoxymethyl)thiazol-2-yl)amino)propanoic acid] |
| 1 to 10 | CSCc1sc(N(CCC(=O)O)Cc2ccccc2)nc1-c1ccc(Cl)c(Cl)c1 [I-121] |
| 1 to 10 | O=C(O)CCN(Cc1ccccc1)c1nc(-c2ccc(Cl)c(Cl)c2)c(Cn2ccnc2)s1 [I-122] |
| ≤ 1 | CC(C)Cc1sc(N(CCC(=O)O)Cc2ccccc2)nc1-c1ccc(-c2ccsc2)cc1 [I-126, 3-(benzyl(5-isobutyl-4-(4-(thiophen-3-yl)phenyl)thiazol-2-yl)amino)propanoic acid] |
| 1 to 10 | CSc1ccc(-c2nc(N(CCC(=O)O)Cc3ccccc3)sc2CC(C)C)cc1 [I-127] |
| > 10 | CC(C)Cc1sc(N(CCC(=O)O)Cc2ccccc2)nc1-c1ccc(S(C)(=O)=O)cc1 [I-128, 3-(benzyl(5-isobutyl-4-(4-(methylsulfonyl)phenyl)thiazol-2-yl)amino)propanoic acid] |
| 1 to 10 | C=Cc1sc(N(CCC(=O)O)Cc2ccccc2)nc1-c1ccc(Cl)c(Cl)c1 [I-129, 3-(benzyl(4-(3,4-dichlorophenyl)-5-vinylthiazol-2-yl)amino)propanoic acid] |
| > 10 | O=C(O)CCN(Cc1ccccc1)c1nc(-c2ccc(Cl)c(Cl)c2)c(CN2CCC2)s1 [I-130] |
| 1 to 10 | CC(C)Cc1sc(N(CCC(=O)NCCN)Cc2ccccc2)nc1-c1ccc(Cl)c(Cl)c1 [I-131, N-(2-aminoethyl)-3-(benzyl(4-(3,4-dichlorophenyl)-5-isobutylthiazol-2-yl)amino)propanamide] |
| 1 to 10 | CC(C)Cc1sc(N(CCC(=O)N(C)CCN)Cc2ccccc2)nc1-c1ccc(Cl)c(Cl)c1 [I-132] |
| > 10 | CC(C)Cc1sc(N(CCC(=O)N2CCN(C)CC2)Cc2ccccc2)nc1-c1ccc(Cl)c(Cl)c1 [I-133, 3-(benzyl(4-(3,4-dichlorophenyl)-5-isobutylthiazol-2-yl)amino)-1-(4-methylpiperazin-1-yl)propan-1-one] |
| 1 to 10 | CC(C)Cc1sc(N(CCC(=O)N2CCNCC2)Cc2ccccc2)nc1-c1ccc(Cl)c(Cl)c1 [I-134] |
| 1 to 10 | CC(C)Cc1sc(N(CCC(=O)N2CCC(CN)CC2)Cc2ccccc2)nc1-c1ccc(Cl)c(Cl)c1 [I-135] |
| > 10 | CC(C)Cc1sc(N(Cc2ccccc2)C(=O)CC(=O)O)nc1-c1ccc(Cl)c(Cl)c1 [I-143, 3-(benzyl(4-(3,4-dichlorophenyl)-5-isobutylthiazol-2-yl)amino)-3-oxopropanoic acid] |
| 1 to 10 | CC(C)Cc1sc(N(CCC(=O)O)C(=O)c2ccccc2)nc1-c1ccc(Cl)c(Cl)c1 [I-144] |
